Patent US8478375B2, “Sensor for detection of carbohydrate” (Medtronic Minimed, Inc., priority 2004, dated 2013)

Biological target: MBL (Homo sapiens, UniProt P11226)
Test: Affinity of monomeric saccharides for MBL
Type: binding

Sequence of MBL (P11226 21-248): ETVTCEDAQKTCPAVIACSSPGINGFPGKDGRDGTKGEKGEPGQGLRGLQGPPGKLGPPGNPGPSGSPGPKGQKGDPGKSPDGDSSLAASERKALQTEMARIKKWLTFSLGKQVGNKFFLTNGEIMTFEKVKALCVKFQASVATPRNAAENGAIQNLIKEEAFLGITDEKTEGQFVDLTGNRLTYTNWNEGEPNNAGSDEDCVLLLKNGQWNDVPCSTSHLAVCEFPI

| Structure (SMILES) | affinity for MBL |
| --- | --- |
| CC(=O)N[C@H]1C(O)O[C@H](CO)[C@@H](O)[C@@H]1O (some centres unmarked) [N-acetyl-glucosamine] | high affinity |
| O=C[C@H](O)[C@@H](O)[C@@H](O)[C@H](O)CO [galactose] | very low affinity |
